Measured values reported in patent publication US9695194B2, “Benzoxazinone derivatives for treatment of skin diseases” (SIXERA PHARMA AB, priority 2014, dated 2017).
pIC50: −log10 of the molar value.

Experiments:
Chymotrypsin, bovine = Chymotrypsin, bovine (Bos taurus (Bovine), UniProt P00766); assay: Chymotrypsin assay; assay type: biochemical; settings: substrate S-2586, 37° C., pH 7.2
Method: Materials: Chymotrypsin, bovine, 25 μg (Roche, sequence grade), Substrate S-2586 (Chromogenics, cat. no. 82 08 94)

Trypsin = Trypsin (Bos taurus (Bovine), UniProt P00760); assay: Trypsin assay; assay type: biochemical, human; settings: substrate S-2288, 37° C., pH 7.2
Trypsin, sequence (P00760 24-246): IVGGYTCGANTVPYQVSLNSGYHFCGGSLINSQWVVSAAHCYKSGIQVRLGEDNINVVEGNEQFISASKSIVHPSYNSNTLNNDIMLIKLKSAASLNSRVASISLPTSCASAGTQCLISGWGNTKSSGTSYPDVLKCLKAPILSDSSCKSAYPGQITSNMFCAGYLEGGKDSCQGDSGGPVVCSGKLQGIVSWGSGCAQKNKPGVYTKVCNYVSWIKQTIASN

Recombinant human KLK7 = Recombinant human KLK7 (Homo sapiens (Human), UniProt P49862); assay: KLK7 assay; assay type: biochemical; settings: substrate S-2586, 37° C., pH 7.2
Recombinant human KLK7, sequence (P49862 30-253): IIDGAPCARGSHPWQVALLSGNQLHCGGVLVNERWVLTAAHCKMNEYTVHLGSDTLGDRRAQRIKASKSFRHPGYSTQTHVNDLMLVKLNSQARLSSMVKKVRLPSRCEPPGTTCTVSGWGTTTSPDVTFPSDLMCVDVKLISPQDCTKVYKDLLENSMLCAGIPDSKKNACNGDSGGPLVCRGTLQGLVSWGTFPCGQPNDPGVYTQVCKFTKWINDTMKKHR

Recombinant human KLK5 = Recombinant human KLK5 (Homo sapiens (Human), UniProt Q9Y337); assay: KLK5 assay
Recombinant human KLK5, sequence (Q9Y337 23-293): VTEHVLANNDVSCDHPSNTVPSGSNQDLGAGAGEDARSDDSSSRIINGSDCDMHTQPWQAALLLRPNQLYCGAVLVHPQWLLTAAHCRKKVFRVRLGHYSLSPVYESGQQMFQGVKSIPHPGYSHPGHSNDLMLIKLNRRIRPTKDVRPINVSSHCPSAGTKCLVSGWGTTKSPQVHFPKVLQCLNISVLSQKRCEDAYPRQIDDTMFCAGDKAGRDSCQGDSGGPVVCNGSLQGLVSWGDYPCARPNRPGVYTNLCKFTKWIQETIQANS
Method: (§1) IC50 values for a number of substituted 3,1-benzoxazin-4-ones on a panel of human proteases were determined.

Cathepsin G = Cathepsin G (Homo sapiens (Human), UniProt P08311); assay: Cathepsin G assay
Cathepsin G, sequence (P08311 21-255): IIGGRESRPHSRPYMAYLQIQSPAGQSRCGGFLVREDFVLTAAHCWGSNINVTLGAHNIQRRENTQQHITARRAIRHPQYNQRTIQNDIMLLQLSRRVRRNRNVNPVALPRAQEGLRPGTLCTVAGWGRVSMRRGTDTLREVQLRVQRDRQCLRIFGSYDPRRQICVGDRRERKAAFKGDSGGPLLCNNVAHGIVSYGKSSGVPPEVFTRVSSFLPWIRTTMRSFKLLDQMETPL
Method: as §1

| SMILES | pIC50 (Chymotrypsin, bovine) | pIC50 (Trypsin) | pIC50 (Recombinant human KLK7) | pIC50 (Recombinant human KLK5) | pIC50 (Cathepsin G) |
| --- | --- | --- | --- | --- | --- |
| CS(=O)(=O)c1ccccc1-c1nc2cc3c(cc2c(=O)o1)OCCO3 [Compound 14] | > 7.00 | 5.74 | 6.74 | 6.22 | – |
| CCOc1cc2c(=O)oc(-c3ccccc3Cl)nc2cc1OC [Compound 2, 2-(2-chlorophenyl)-6-ethoxy-7-methoxy-3,1-benzoxazin-4-one] | < 5.00 | < 5.00 | 7.14 | – | < 5.00 |
| COc1ccc(-c2nc3cc4c(cc3c(=O)o2)OCCCO4)c(OC)c1 [Compound 8] | > 7.00 | < 5.00 | 7.19 | – | – |
| CCOc1cc2c(=O)oc(-c3ccccc3OC)nc2cc1OC [Compound 5] | < 5.00 | < 5.00 | 7.07 | – | 5.92 |
| O=c1oc(-c2ccccc2Cl)nc2cc3c(cc12)OCCO3 [Compound 16] | > 7.00 | 5.43 | 6.83 | – | – |
| CCOc1cc2c(=O)oc(-c3ccccc3S(C)(=O)=O)nc2cc1OC [Compound 4] | < 5.00 | < 5.00 | 6.64 | – | 5.55 |
| COc1cc2nc(-c3ccccc3SC)oc(=O)c2cc1OC [Compound 12] | – | < 5.00 | 6.83 | – | – |
| O=c1oc(-c2ccccc2Cl)nc2cc3c(cc12)OCCCO3 [Compound 7] | > 7.00 | < 5.00 | 7.05 | – | 5.72 |
| COc1ccccc1-c1nc2cc3c(cc2c(=O)o1)OCCO3 [Compound 13] | > 7.00 | 5.74 | 6.81 | – | – |
| CSc1ccccc1-c1nc2cc3c(cc2c(=O)o1)OCCCO3 [Compound 9] | – | < 5.00 | 6.64 | – | 5.89 |
| CCOc1cc2c(=O)oc(-c3ccc(OC)cc3OC)nc2cc1OC [Compound 3] | < 5.00 | < 5.00 | 6.94 | – | 5.96 |
| COC1=CC=C(c2nc3cc4c(cc3c(=O)o2)OCCO4)C(OC)C1 (stereo not drawn) [Compound 15] | > 7.00 | 5.43 | 6.98 | – | – |
| CS(=O)(=O)c1ccccc1-c1nc2cc3c(cc2c(=O)o1)OCCCO3 [Compound 10] | 6.70 | < 5.00 | 6.73 | – | – |
| CC(C)c1ccc(-c2nc3cc4c(cc3c(=O)o2)OCCCO4)c(C(C)C)c1 [Compound 11] | 6.00 | < 5.00 | 5.86 | – | < 5.00 |
| COc1ccccc1-c1nc2cc3c(cc2c(=O)o1)OCCCO3 [Compound 6] | > 7.00 | < 5.00 | 7.10 | – | – |
| CCOc1cc2c(=O)oc(-c3ccccc3SC)nc2cc1OC [Compound 1, 6-ethoxy-7-methoxy-2-(2-methylsulfanylphenyl)-3,1-benzoxazin-4-one] | < 5.00 | < 5.00 | 7.32 | – | < 5.00 |
| COc1ccc(-c2nc3cc(OC)c(OC)cc3c(=O)o2)c(OC)c1 [Compound 17] | 5.92 | < 5.00 | 6.76 | 6.00 | 7.00 |
| COc1cc2nc(-c3ccccc3I)oc(=O)c2cc1OC [Compound 18] | < 5.00 | < 5.00 | – | – | 5.72 |
